Patent US20240127967A1
“And” between values parts separate entries of the source, which are not always exact repeats. Equal entries are not always repeated. “Also recorded” adds a separate entry of the source. Where two headings read alike, the source gives them in different places.

Assays:
[1] = in vivo, cited from earlier work
[2] = Pharmacokinetic modeling of human oral PK data (Monolix); design: species or system humans; conditions: for V: fitted PK model parameter (volume of plasma/serum compartment); for k: fitted elimination rate
[3] = State of V8 preparations after storage at 4° C.; type: physicochemical; conditions: stored at 4° C.
EBOV/Mak [4] = conditions: cited from earlier work
[5] = female, C57BL/6, mouse, in vivo; for Cmax: po
EBOV/Mak-005 = conditions: rhesus monkey, in vivo; cited from earlier work
EBOV [6] = conditions: mouse, in vivo; cited from earlier work
[7] = Solubility in ten test vehicles; conditions: for solubility in Vehicle #9: 3% NMP/45% PEG300/12% ethanol/40% sterile water; for solubility in Vehicle #9 / solubility in Vehicle #7 / solubility in Vehicle #6 / solubility in Vehicle #10 / solubility in Vehicle #8 / solubility in Vehicle #5 / solubility in Vehicle #4 / solubility in Vehicle #3: Bepridil 25, Sertraline 3, toremifene 8.4 mg/ml; for solubility in Vehicle #7: 5% NMP/95% PEG 300; for solubility in Vehicle #6: 10% Solutol/90% PEG 400; for solubility in Vehicle #2: 20% Captisol in water; for solubility in Vehicle #2 / solubility in Vehicle #1: Bepridil 25 mg/ml, Sertraline 3 mg/ml, toremifene 8.4 mg/ml; for solubility in Vehicle #10: 40% Propylene Glycol/30% Solutol HS 15/30% Sterile Water; for solubility in Vehicle #8: 80% PEG 400/20% of 0.1% Tween-20 in Water; for solubility in Vehicle #1: Aqueous Suspension Vehicle; for solubility in Vehicle #5: PEG 400; for solubility in Vehicle #4: Vegetable Oil; for solubility in Vehicle #3: […] PEG 400/[…] Tween 20/25% Capmul MCM NF
[8] = Tolerability of drugs in V8 in mice; conditions: in V8, once daily PO, eleven consecutive days; bepridil 500, toremifene 200, sertraline 60 and 100 mg/kg
EBOV/Mak [9] = assay: microbe, parasite or virus in culture; type: cell-based, Ebola virus; conditions: for IC50: Zaire ebolavirus
VSV-EBOV-GPΔ-Luc = type: cell-based, VSV pseudovirus bearing EBOV GP
EBOV [10] = conditions: read-out: IC50 (HepG2); cited from earlier work
MARV = conditions: mouse, in vivo; cited from earlier work
in vivo = conditions: mouse, ip, 12 mg/kg
EBOV [11] = tested on: EBOV; design: species or system mice; conditions: mouse, in vivo
[12] = Huh-7, read-out: IC50 (average)

## CCC(CC)COC(=O)[C@H](C)N[P@](=O)(OC[C@H]1O[C@@](C#N)(c2ccc3c(N)ncnn23)[C@H](O)[C@@H]1O)Oc1ccccc1 [remdesivir]
SARS-CoV-2
  baseline efficacy: 60%
[1]
  median t1/2: ≈ 1 hour
  peak concentration: 5.34 (±0.03) μM
  time of peak concentration: 1.03 (±0.01) hour

## CN[C@H]1CC[C@@H](c2ccc(Cl)c(Cl)c2)c2ccccc21 [Sertraline]
[2]; fitted PK model parameter
  Tlag: 0.0976 days
[2]
  V: 909
[3]
  state of preparation in Vehicle 8 when removed from the refrigerator: no precipitates, not solid
EBOV/Mak [4]
  Hill coefficient: 1.628
[5]
  Cmax obtained relative to prediction, fold higher: ~1.2 fold
  Cmax: ~1200 nM
EBOV/Mak-005
  efficacy in macaques: not effective; also recorded: did not protect
EBOV [6]
  Survival (%): 70% and 70 ^ %
[7]
  solubility in Vehicle #9: Clear solution
  solubility in Vehicle #7: Clear solution
  solubility in Vehicle #6: Clear solution
  solubility in Vehicle #2: Clear solution
  solubility in Vehicle #10: Clear solution
  solubility in Vehicle #8: Clear solution
  solubility in Vehicle #1: Suspension
  solubility in Vehicle #5: Clear solution
  solubility in Vehicle #4: Clear solution
  solubility in Vehicle #3: Clear solution
[8]
  tolerability in mice: well tolerated

## O=C1CCc2ccc(OCCCCN3CCN(c4cccc(Cl)c4Cl)CC3)cc2N1 [Aripiprazole]
EBOV [6]
  Survival (%): 10 ^1%
  adverse effect in treated infected mice: ^1 Mice became extremely somnolent, thwarting eating and drinking, which likely contributed to low survival.

## O=C(Nc1ncc([N+](=O)[O-])s1)c1ccccc1O [tizoxanide]
[1]
  peak concentration: 17.34 (±13.61)
  trough concentration: 3.02 (±7.43)

## CC(C)COCC(CN(Cc1ccccc1)c1ccccc1)N1CCCC1 (stereo not shown) [Bepridil]
EBOV/Mak [9]
  possible loss of potency on storage in V8: < 2 fold
EBOV/Mak [9]; Huh-7
  IC50: 4.5 µM
EBOV/Mak [9]; [12]
  IC50: 4.53 µM
VSV-EBOV-GPΔ-Luc
  stability of inhibitory activity of stock in V8: maintained inhibitory activity over 15 days
[2]; fitted PK model parameter
  Tk0: 0.0873 days
  k12: 6.71 per day
  k21: 1.61 per day
[2]
  V: 25.2
  k: 0.348 per day
Ebola virus
  single drug effect: exceeds 80%
[3]
  state of preparation in Vehicle 8 when removed from the refrigerator: always solid (as if it had frozen) and contained precipitate
EBOV/Mak [4]
  Hill coefficient: 4.859
EBOV/Mak [4]; read-out: IC50 (Huh7)
  IC50: 5.86 µM
EBOV/Mak [4]; read-out: IC50
  IC50: 5.86 µM
[5]
  Cmax obtained relative to prediction, fold higher: ~1.8 fold
  Cmax: ~3000 nM
EBOV [10]
  IC50: 3.21 µM
MARV
  Survival (%): 90 ^4%
In vivo
  Cmax: 3300 nM
EBOV [6]
  Survival (%): 100% and 100 ^3%
[1]
  peak concentration: 3.63 (±1.48) μM
  trough concentration: 2.60 (±1.21) μM
[7]
  solubility in Vehicle #9: Clear solution
  solubility in Vehicle #7: Clear solution
  solubility in Vehicle #6: Clear solution
  solubility in Vehicle #2: Slightly hazy
  solubility in Vehicle #10: Clear solution
  solubility in Vehicle #8: Clear solution
  solubility in Vehicle #1: Suspension
  solubility in Vehicle #5: Clear solution
  solubility in Vehicle #4: Clear solution
  solubility in Vehicle #3: Clear solution
[8]
  tolerability in mice: well tolerated

## CCOC(=O)c1c(CSc2ccccc2)n(C)c2cc(Br)c(O)c(CN(C)C)c12 [arbidol]
SARS-CoV-2
  baseline efficacy: 36%
[1]
  peak concentration: 0.77 (±0.23) μM
  trough concentration: 0.32 (±0.09) μM

## CC[C@H]1OC(=O)[C@H](C)[C@@H](O[C@H]2C[C@@](C)(OC)[C@@H](O)[C@H](C)O2)[C@H](C)[C@@H](O[C@@H]2O[C@H](C)C[C@H](N(C)C)[C@H]2O)[C@](C)(O)C[C@@H](C)CN(C)[C@H](C)[C@@H](O)[C@]1(C)O [Azithromycin]
EBOV/Mak [4]; read-out: IC50 (Huh7)
  IC50: 10.8 µM
EBOV [6]
  Survival (%): 10, 30, 60 ^2%

## Cc1cccc(/C=N/Nc2cc(N3CCOCC3)nc(OCCc3ccccn3)n2)c1 [Apilimod]
EBOV/Mak [4]; read-out: IC50 (Huh7)
  IC50: 0.17 µM
[1]; human, po
  Cmax: 260 nM

## CN(C)CCOc1ccc(/C(=C(/CCCl)c2ccccc2)c2ccccc2)cc1 [Toremifene]
EBOV/Mak [9]; [12]
  IC50: 1.83 µM
VSV-EBOV-GPΔ-Luc
  stability of inhibitory activity of stock in V8: began to lose activity after about 1 week
EBOV [11]
  approximated protection of infected mice: ~50%
  reasoned survival: ~7%
EBOV [11]; po, 200 mg/kg
  estimated survival: ~50%
[2]; fitted PK model parameter
  k12: 4.28 per day
  k21: 0.992 per day
[2]
  V: 354
  k: 0.000198 per day
[2]; fitted absorption rate
  ka: 16.6 per day
[3]
  state of preparation in Vehicle 8 when removed from the refrigerator: no precipitates, not solid
EBOV/Mak [4]
  Hill coefficient: 3.057
EBOV/Mak [4]; read-out: IC50 (Huh7)
  IC50: 3.64 µM
EBOV/Mak [4]; read-out: IC50
  IC50: 3.64 µM
[5]
  Cmax obtained relative to prediction, fold lower: ~1.4 fold
  Cmax: ~4400 nM
EBOV [10]
  IC50: 0.03 µM
EBOV [6]
  Survival (%): 50% and 50 ^ %
[1]
  peak concentration: 1.18 (±0.42) μM
  trough concentration: 0.29 µM
[7]
  solubility in Vehicle #9: Clear solution
  solubility in Vehicle #7: Clear solution
  solubility in Vehicle #6: Suspension
  solubility in Vehicle #2: Clear solution
  solubility in Vehicle #10: Insoluble
  solubility in Vehicle #8: Clear solution
  solubility in Vehicle #1: Suspension
  solubility in Vehicle #5: Suspension
  solubility in Vehicle #4: Non-
  solubility in Vehicle #3: Suspension
[8]
  tolerability in mice: well tolerated

## CC(=O)c1ccc2c(c1)N(CCCN1CCC(CCO)CC1)c1ccccc1S2 [piperacetazine, Piperacetazine]
EBOV/Mak [4]; read-out: IC50 (Huh7)
  IC50: 7.58 µM
EBOV [10]
  IC50: 3.3 µM
